Experimental data reported in publication PMC10046369, “Low-Affinity/High-Selectivity Dopamine Transport Inhibition Sufficient to Rescue Cognitive Functions in the Aging Rat” (Biomolecules, 2023).

Experiments:
Assay in all cases: biochemical
Design in all cases: KINOMEscan competition binding panel, per cent of control
Settings in all cases: read-out: %Ctrl @ 2800nM
ADCK4 = biological target: T1, ADCK4 (Homo sapiens, UniProt Q96D53)
T1 construct: gene COQ8B
Experimental: (§1) A panel of binding assays covering 450 human kinases and disease-relevant mutations was performed by DiscoverX (KINOMEscan®, Freemont, CA, USA) according to the standard and validated protocol defined by the contractor. […] Kinase binding assays This study was outsourced to DiscoverX (KINOMEscan®, Freemont, CA, USA) and is compliant with the corresponding project BUY004-01-p-00001. […] Results are reported as percent control (% Ctrl), where lower numbers indicate stronger hits in the matrix on the following page(s). %Ctrl calculation: ((test compound signal-positive control signal) / (negative control signal – positive control signal)) x 100.

AMPK-alpha2 = biological target: T2, AMPK-alpha2 (Homo sapiens, UniProt P54646)
T2 construct: gene PRKAA2
Experimental: as §1

BMX = BMX (Homo sapiens, UniProt P51813)
Experimental: as §1

CAMK2D = CAMK2D (Homo sapiens, UniProt Q13557)
Chain of CAMK2D (Q13557 whole entry): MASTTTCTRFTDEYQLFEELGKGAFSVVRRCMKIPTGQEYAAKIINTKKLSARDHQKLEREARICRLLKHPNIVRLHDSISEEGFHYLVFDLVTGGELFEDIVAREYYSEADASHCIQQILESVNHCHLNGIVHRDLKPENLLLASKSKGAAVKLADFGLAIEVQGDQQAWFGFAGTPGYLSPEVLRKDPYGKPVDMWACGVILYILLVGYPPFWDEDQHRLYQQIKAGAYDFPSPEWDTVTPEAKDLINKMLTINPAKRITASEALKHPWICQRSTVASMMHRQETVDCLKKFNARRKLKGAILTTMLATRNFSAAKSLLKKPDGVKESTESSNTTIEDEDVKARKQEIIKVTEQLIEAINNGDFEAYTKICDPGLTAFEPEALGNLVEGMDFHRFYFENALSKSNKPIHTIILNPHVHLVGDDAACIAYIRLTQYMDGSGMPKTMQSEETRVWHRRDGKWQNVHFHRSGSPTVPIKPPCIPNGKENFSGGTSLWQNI
Experimental: as §1

CLK1 = CLK1 (Homo sapiens, UniProt P49759)
Experimental: as §1

DAPK1 = DAPK1 (Homo sapiens, UniProt P53355)
Experimental: as §1

DMPK = DMPK (Homo sapiens, UniProt Q09013)
Experimental: as §1

DRAK1 = biological target: T3, DRAK1 (Homo sapiens, UniProt Q9UEE5)
T3 construct: gene STK17A
Experimental: as §1

FGR = FGR (Homo sapiens, UniProt P09769)
Experimental: as §1

HIPK3 = HIPK3 (Homo sapiens, UniProt Q9H422)
Chain of HIPK3 (Q9H422 whole entry): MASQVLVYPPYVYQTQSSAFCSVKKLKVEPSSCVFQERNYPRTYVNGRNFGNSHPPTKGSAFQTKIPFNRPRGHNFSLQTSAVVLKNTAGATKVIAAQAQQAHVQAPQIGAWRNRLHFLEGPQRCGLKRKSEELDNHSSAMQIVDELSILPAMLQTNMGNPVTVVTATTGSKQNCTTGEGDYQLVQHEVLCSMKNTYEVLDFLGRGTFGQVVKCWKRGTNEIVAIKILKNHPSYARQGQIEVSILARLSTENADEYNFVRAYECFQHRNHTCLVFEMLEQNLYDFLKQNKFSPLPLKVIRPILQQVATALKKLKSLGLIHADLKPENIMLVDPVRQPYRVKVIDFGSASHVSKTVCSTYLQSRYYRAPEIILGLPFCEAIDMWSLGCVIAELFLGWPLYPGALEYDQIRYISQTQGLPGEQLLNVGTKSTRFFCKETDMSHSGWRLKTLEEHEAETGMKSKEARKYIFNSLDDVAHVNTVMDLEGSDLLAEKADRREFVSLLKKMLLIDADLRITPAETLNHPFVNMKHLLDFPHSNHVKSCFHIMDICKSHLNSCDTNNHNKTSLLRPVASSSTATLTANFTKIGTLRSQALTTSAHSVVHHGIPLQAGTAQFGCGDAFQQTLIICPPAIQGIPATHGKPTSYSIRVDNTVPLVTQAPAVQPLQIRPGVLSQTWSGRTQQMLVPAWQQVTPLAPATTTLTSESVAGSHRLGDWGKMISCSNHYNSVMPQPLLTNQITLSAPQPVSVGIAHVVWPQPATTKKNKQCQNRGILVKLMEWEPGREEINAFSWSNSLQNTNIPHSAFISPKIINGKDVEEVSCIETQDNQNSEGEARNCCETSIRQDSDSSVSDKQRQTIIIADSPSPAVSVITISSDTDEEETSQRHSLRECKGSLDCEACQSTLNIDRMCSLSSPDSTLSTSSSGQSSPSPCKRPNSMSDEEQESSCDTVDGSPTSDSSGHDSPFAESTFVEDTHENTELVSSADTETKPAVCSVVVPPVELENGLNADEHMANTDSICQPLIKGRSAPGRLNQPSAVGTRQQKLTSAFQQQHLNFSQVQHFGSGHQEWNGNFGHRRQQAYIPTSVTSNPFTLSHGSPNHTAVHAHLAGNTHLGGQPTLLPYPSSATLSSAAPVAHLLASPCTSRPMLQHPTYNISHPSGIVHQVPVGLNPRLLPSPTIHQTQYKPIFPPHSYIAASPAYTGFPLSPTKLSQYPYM
Experimental: as §1

KIT = KIT (Homo sapiens, UniProt P10721)
Chain of KIT (P10721 whole entry): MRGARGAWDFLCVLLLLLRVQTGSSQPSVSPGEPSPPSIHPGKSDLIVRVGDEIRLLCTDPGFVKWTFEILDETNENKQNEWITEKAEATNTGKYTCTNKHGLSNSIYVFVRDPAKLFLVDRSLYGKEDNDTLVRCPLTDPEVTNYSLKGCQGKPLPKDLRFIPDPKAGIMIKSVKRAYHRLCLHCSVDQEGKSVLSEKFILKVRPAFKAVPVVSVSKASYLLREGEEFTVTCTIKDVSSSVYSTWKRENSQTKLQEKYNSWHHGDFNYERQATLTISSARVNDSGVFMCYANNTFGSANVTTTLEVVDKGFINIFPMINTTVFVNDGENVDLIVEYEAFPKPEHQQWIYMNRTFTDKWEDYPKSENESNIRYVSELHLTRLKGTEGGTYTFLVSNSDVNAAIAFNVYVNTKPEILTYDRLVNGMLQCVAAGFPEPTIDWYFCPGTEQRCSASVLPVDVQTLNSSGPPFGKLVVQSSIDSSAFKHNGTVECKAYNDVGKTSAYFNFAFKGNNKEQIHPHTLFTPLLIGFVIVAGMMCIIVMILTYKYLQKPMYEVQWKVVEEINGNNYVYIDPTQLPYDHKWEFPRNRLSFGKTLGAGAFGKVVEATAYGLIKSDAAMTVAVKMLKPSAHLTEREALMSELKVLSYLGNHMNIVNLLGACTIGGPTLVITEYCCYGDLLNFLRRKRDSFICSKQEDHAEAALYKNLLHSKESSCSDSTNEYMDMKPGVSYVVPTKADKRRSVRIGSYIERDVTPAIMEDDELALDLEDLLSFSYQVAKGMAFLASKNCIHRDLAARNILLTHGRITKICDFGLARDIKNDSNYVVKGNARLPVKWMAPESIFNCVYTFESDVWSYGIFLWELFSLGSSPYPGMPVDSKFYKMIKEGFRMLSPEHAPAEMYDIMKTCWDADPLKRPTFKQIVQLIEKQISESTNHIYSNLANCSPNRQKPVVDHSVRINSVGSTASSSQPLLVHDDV
Experimental: as §1

LYN = LYN (Homo sapiens, UniProt P07948)
Experimental: as §1

LZK = biological target: T4, LZK (Homo sapiens, UniProt O43283)
T4 construct: gene MAP3K13
Experimental: as §1

MLK2 = biological target: T5, MLK2 (Homo sapiens, UniProt Q02779)
T5 construct: gene MAP3K10
Experimental: as §1

MST2 = biological target: T6, MST2 (Homo sapiens, UniProt Q13188)
T6 construct: gene STK3
Experimental: as §1

NEK6 = NEK6 (Homo sapiens, UniProt Q9HC98)
Chain of NEK6 (Q9HC98 whole entry): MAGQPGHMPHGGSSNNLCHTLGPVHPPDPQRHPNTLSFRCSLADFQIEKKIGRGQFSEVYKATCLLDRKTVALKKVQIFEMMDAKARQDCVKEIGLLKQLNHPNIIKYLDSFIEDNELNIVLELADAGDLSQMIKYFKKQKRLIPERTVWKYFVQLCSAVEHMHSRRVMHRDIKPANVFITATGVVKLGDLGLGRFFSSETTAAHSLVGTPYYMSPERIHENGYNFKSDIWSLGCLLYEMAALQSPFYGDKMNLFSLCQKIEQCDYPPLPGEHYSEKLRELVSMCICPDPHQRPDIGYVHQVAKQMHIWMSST
Experimental: as §1

PAK1 = PAK1 (Homo sapiens, UniProt Q13153)
Experimental: as §1

PAK4 = PAK4 (Homo sapiens, UniProt O96013)
Experimental: as §1

PCTK3 = biological target: T7, PCTK3 (Homo sapiens, UniProt Q07002)
T7 construct: gene CDK18
T7 sequence (Q07002 whole entry): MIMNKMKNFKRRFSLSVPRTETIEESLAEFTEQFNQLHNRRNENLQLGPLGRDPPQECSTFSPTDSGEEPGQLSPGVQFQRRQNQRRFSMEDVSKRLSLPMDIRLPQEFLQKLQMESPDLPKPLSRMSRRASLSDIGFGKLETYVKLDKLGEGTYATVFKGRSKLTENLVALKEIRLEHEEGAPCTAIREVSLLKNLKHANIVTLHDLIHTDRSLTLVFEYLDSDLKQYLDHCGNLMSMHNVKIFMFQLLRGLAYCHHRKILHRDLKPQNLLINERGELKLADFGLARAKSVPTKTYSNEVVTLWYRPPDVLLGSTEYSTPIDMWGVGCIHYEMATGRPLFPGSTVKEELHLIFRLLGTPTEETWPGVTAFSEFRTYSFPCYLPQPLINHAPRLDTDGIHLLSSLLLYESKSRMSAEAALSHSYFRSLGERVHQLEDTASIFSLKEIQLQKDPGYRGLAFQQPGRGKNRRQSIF
Experimental: as §1

PIK3CA(C420R) = PIK3CA(C420R) (Homo sapiens, UniProt P42336, C420R)
Experimental: as §1

PYK2 = biological target: T8, PYK2 (Homo sapiens, UniProt Q14289)
T8 construct: gene PTK2B
T8 sequence (Q14289 whole entry): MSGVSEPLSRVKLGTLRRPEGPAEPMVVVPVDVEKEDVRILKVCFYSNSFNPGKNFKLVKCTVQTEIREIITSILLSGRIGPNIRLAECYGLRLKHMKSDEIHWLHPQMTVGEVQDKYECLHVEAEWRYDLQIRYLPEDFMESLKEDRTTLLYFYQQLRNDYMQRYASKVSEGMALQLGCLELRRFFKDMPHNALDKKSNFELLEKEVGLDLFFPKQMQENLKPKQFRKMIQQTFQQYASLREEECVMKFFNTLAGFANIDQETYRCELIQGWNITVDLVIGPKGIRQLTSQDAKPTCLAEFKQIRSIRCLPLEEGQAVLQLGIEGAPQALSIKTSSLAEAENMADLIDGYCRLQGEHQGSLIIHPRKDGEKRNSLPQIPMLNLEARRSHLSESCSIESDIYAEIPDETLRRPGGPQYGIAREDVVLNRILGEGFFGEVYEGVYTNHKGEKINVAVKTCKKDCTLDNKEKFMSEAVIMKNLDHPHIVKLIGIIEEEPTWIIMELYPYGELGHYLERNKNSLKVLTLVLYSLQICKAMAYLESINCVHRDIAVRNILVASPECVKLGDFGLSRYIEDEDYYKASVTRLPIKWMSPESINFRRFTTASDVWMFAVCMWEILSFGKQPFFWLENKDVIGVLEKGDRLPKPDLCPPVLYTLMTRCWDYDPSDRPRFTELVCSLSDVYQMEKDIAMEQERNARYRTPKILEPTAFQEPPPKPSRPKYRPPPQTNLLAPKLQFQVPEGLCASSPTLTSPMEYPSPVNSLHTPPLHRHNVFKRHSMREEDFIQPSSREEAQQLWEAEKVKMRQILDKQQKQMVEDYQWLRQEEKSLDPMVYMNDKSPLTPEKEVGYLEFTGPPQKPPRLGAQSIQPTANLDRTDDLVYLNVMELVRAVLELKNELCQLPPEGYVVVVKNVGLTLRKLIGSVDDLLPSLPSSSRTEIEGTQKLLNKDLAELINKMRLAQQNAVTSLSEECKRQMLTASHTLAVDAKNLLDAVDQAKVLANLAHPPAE
Experimental: as §1

RET(V804M) = RET(V804M) (Homo sapiens, UniProt P07949, V804M)
Experimental: as §1

RIOK2 = RIOK2 (Homo sapiens, UniProt Q9BVS4)
Experimental: as §1

RIPK1 = RIPK1 (Homo sapiens, UniProt Q13546)
Experimental: as §1

STK35 = STK35 (Homo sapiens, UniProt Q8TDR2)
Experimental: as §1

SYK = SYK (Homo sapiens, UniProt P43405)
Experimental: as §1

TRKB = biological target: T9, TRKB (Homo sapiens, UniProt Q16620)
T9 construct: gene NTRK2
Experimental: as §1

T1 sequence (Q96D53 whole entry): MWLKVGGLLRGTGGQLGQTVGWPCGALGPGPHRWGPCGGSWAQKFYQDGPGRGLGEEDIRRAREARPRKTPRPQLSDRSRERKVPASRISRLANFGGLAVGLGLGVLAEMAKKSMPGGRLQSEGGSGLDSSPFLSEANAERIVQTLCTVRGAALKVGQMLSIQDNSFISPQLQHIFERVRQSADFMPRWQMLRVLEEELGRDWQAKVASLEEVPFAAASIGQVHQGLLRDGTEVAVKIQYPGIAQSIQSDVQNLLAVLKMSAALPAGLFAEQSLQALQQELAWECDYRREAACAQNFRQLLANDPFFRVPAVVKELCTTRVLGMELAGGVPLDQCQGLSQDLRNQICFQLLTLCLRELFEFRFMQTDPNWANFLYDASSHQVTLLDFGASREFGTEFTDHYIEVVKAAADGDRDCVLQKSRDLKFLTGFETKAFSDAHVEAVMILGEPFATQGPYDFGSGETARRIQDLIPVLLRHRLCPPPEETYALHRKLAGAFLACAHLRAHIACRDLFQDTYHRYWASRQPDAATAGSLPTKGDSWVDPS

[O-][S@@+](Cc1cncs1)C(c1ccccc1)c1ccccc1 [S-CE-123, (S)-5-((Benzhydrylsulfinyl)Methyl)Thiazole]
remaining binding at 2.8 µM (ADCK4): 96%
remaining binding at 2.8 µM (AMPK-alpha2): 97%
remaining binding at 2.8 µM (BMX): 57%
remaining binding at 2.8 µM (CAMK2D): 88%
remaining binding at 2.8 µM (CLK1): 96%
remaining binding at 2.8 µM (DAPK1): 91%
remaining binding at 2.8 µM (DMPK): 96%
remaining binding at 2.8 µM (DRAK1): 95%
remaining binding at 2.8 µM (FGR): 100%
remaining binding at 2.8 µM (HIPK3): 91%
remaining binding at 2.8 µM (KIT): 97%
remaining binding at 2.8 µM (LYN): 83%
remaining binding at 2.8 µM (LZK): 94%
remaining binding at 2.8 µM (MLK2): 96%
remaining binding at 2.8 µM (MST2): 80%
remaining binding at 2.8 µM (NEK6): 100%
remaining binding at 2.8 µM (PAK1): 92%
remaining binding at 2.8 µM (PAK4): 98%
remaining binding at 2.8 µM (PCTK3): 99%
remaining binding at 2.8 µM (PIK3CA(C420R)): 92%
remaining binding at 2.8 µM (PYK2): 100%
remaining binding at 2.8 µM (RET(V804M)): 95%
remaining binding at 2.8 µM (RIOK2): 99%
remaining binding at 2.8 µM (RIPK1): 80%
remaining binding at 2.8 µM (STK35): 98%
remaining binding at 2.8 µM (SYK): 100%
remaining binding at 2.8 µM (TRKB): 100%
